Experimental data reported in patent publication US12691084B2, “Pharmaceutical composition for preventing or treating bone diseases” (INDUSTRY FOUNDATION OF CHONNAM NATIONAL UNIVERSITY, priority 2019, dated 2026).

What was measured:
[1] = test system: monocytes isolated from mouse bone marrow; assay: MTT assay for cytotoxicity evaluation (cell viability); assay type: cell-based; conditions: 3-10 μM; 4 days
Description: 1×10^4 monocytes isolated from mouse bone marrow per well were put into a 96-well plate, and in order to assess cell viability, the cells were cultured for 4 days while being treated with PSTP-3,5-Me at different concentrations (3-10 μM). A cell viability assay reagent (DoGen, EZ-3000) was used for treatment with 1/10 of the volume of the medium, and the cells were cultured at 37° C. for 30 minutes and confirmed at […]. […] In other words, it is understood that no cytotoxicity appeared.

mouse bone marrow cells = assay: F-actin staining, actin-ring formation; assay type: cell-based; conditions: 6 uM, 4 to 5 days
Description: In order to determine the activity of differentiated osteoclasts, an ability to differentiate the cells into multinuclear cells was firstly confirmed through F-actin staining. Specifically, 5×10^4 mouse hone marrow cells per well were put into a 24-well plate in which glass coated with L-Lysine was placed (Corning, 354085). Simultaneously, the cells were treated with PSTP-3,5-Me 6 uM and cultured for 4 to 5 days. The differentiated cells were fixed with 4% formaldehyde for 10 minutes and washed with PBS. For the antigen-antibody reaction, a reaction was conducted in 0.1% Triton-PBS for 20 minutes, followed by reacting the same in 1% BSA for 1 hour. Thereafter, the F-actin antibody (Thermo Fisher Scientific, A12379) was reacted for 1 hour and than washed. Cell nuclei were stained through 4′,6-diamidino-2-phenylindole (DAPI, Dilactate, Thermo Fisher Scientific, D3571) staining, and then photographed under a microscope. As a result, it was confirmed by comparing shies of F-actin that PSTP-3,5-Me inhibited differentiation into multinuclear cells.

Structure (SMILES): Cc1cc(C)cc(N([C@@H](C)C(=O)Nc2ccccc2Sc2ccccc2)S(C)(=O)=O)c1 [#25-D5, N^2-(3,5-dimethylphenyl)-N^2-(methylsulfonyl)-N-[2-(phenylthio)phenyl]alanineamide]
- cell viability [1]: did not affect cell viability
- differentiation into multinuclear cells (F-actin) (mouse bone marrow cells): inhibited
- actin-ring formation (mouse bone marrow cells; compared to control): small-sized actin-ring structure
